Measured values as given in patent publication US7307101B2, “Use of 20-HETE synthesizing enzyme inhibitors as therapy for cerebral vascular disease” (MCW Research Foundation, Inc., priority 2000, dated 2007).

How the values were obtained:
rats with MCA occlusion = assay: Infarct volume after transient MCA occlusion; type: in vivo, rat; conditions: 24 h
Description: Adult male Wistar rats (200-250 g) were anesthetized with 2% halothane in O2 gas. The right external carotid artery (ECA) was carefully dissected. A silicon-coated suture (18 mm-long) was inserted from the lumen of the ECA to the right internal carotid artery (ICA) to occlude the origin of the right middle cerebral artery (MCA). Body temperature was maintained at 37° C. with a heating pad. […] One hour after MCA occlusion, the thread was removed to allow reperfusion of the ischemic area.
To measure infarct volume, rats were killed after 24 hours of reperfusion following transient occlusion of the MCA. Brains were flushed transcardially with physiological saline, removed from the skull, and cut into 2-mm coronal sections. The slices were immersed in 2% triphenyltetrazolium chloride (TTC) solution at 37° C. for 30 minutes.
All values were presented as mean±SEM. For statistical analysis, Dunnett's multiple-range test was used.

canine neutrophils = assay: Formation of 20-HETE by canine neutrophils; type: cell-based; conditions: Canis lupus familiaris, Neutrophil, read-out: IC50, formation of 20-HETE by canine neutrophils; 2×10^7 cells in dog CSF, 2 hours, n=4
Description: Experiments were performed to determine the cell type in canine blood responsible for the formation of 20-HETE. Experiments were performed using 4 male Beagle dogs. The dogs were anesthetized with sodium pentobarbital (30 mg/kg, i.v.). Venous blood sample was drawn and immediately mixed with 1:9 volume of trisodium citrate (3.8%) as an anticoagulant. Neutrophils were prepared to 98% purity using a percoll gradient technique. CSF was drawn from the Cistema Magna by using a 20 gauge needle. Only clear CSF sample without blood was used for the present experiment. The CSF was oxygenated with mixed gas (95% O2, 5% CO2) for 30 min. Neutrophils were suspended in the oxygenated CSF and cell numbers were adjusted to 2×10^6, 6.3×10^6, and 2×10^7. Whole blood (20 μl), red blood cells (20 μl) or neutrophils were incubated in the oxygenated CSF (180 μl) including 1 mM NADPH and [^3H]-AA at 37° C. for 2 hrs. The reaction was terminated by the addition of formic acid. One hundred percent acetonitrile (200 μl) was added to the reaction buffer to adjust final concentration to 50% for HPLC separation. […] The labeled products formed were monitored using a radioactive flow detector (raytest GmbH, Straubenhardt, Germany).
The reactions were terminated by addition of formic acid. […] The labeled metabolites were monitored using a radioactive flow detector ramona 93 (raytest GmbH, Straubenhardt, Germany).

PGH1 synthase = target: T1, PGH1 synthase (Ovis aries, UniProt P05979); assay: COX activity (conversion of AA to PGE2); type: biochemical, ram; conditions: 10^−6 M
T1 construct: the purified enzyme from ram seminal vesicles PGH1 synthase; purchased Cayman Chemical Co., Ann Arbor, Mich; host or cells: ram seminal vesicles (tissue-purified)
T1 sequence (P05979 25-600): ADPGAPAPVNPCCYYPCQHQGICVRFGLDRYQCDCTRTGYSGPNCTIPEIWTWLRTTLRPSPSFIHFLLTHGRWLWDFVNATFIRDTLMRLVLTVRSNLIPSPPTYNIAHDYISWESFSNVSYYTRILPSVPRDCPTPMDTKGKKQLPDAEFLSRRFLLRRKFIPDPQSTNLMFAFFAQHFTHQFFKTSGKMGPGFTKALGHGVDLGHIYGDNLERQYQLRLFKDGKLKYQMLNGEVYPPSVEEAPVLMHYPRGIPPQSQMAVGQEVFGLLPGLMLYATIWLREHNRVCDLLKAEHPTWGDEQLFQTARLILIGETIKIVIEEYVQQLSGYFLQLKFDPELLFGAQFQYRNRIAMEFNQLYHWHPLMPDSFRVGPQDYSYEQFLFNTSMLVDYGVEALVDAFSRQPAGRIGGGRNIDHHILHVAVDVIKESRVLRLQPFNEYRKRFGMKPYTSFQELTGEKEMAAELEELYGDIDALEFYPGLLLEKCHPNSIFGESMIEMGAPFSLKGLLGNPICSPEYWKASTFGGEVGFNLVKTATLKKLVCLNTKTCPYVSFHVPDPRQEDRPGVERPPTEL
Description: Reaction mixtures were incubated at 37° C. for 2 min before the addition of AA and for 2 min thereafter. All samples were run in duplicate. Amounts of PGE2 were determined by EIA after 100-400 times dilution with Tris buffer.

[1] = test system: rat 20-HETE synthesizing enzyme; assay: Synthesis of 20-HETE in rat renal microsomes ([14C]-AA); type: biochemical; conditions: 1.5 nM, lowest dose tested
Description: Microsomes were prepared by differential centrifugation as previously described. […] The reactions were terminated by acidification to pH 3.5 using 0.1 mol/L formic acid and extracted with ethyl acetate. Metabolites were separated using a 25 cm×2 mm i.d. (Supelco Inc., Bellefonte, Pa.) C18-reverse phase HPLC column and a linear elution gradient ranging from acetonitrile:water: acetic acid (50/50/0.1) to acetonitrile:acetic acid (100/0.1) over a 40 min period. The radioactive products were monitored using a radioactive flow detector (Model 120, Radiomatic Instrument Co., Tampa, Fla.).

## CCCCc1ccc(N=CNO)c(C)c1 [HET0016, N-hydroxy-N′-(4-butyl-2-methylphenyl)-formamidine]
Rats with MCA occlusion; 0.1 mg/kg i.v. just after reperfusion, n=10
  infarct volume: 10.7±2.6%
Rats with MCA occlusion; 1 mg/kg i.v. just after reperfusion, n=17
  infarct volume: 9.7±2.1%
Canine neutrophils
  IC50: 10.2 ± 1.3 nM
PGH1 synthase
  inhibition at 1 µM: 20%
[1]
  inhibition of rat 20-HETE synthesizing enzymes: about 20%
